The subject of assay [1] is ERK, RB, MPK, AKT, mTOR and 4E-BP1 phosphorylation in SW48. As to the kind of experiment: Western blot of MEK/ERK/cyclin D1/RB and PI3K/AKT/mTOR/4E-BP1 signaling. The assay is classed as cell-based, human. To be noted: 24 h, FIGS. 9A-C. The protocol: (§1) Western blot was used to detect the change of metformin on the related molecules of sroliferative signaling pathways MEK/ERK/cyclin D1/RB and PI3K/AKT/mTOR/4E-BP1, which clarifies the mechanism of metformin in inhibiting the proliferation of KRAS mutation CRC cells.
(§2) 1) Cells were inoculated on a culture dish and cultured to 60% of fusion degree, and treated with the addition of an agent for 24 h.
(§3) 2) Protein was collected, and washed with PBS for 3 times, then added with 100 μl 1 RSDS buffer solution (100 mmol/1 Tris-Cl pH6.8, 2% SDS, 10% glycerinum), and at this time, the cell lysis solution was sticky.
(§4) 3) The cell lysis solution was collected into a 0.5 ml centrifugal tube with a scraper, and cooked for 30 min at 100° C.
(§5) 4) The total protein extractive in the cells was subjected to protein quantification according to a BCA kit process (BIO-RAD company).
(§6) 5) The sample was treated according to a ratio of 9 μl denatured protein sample: 1 μl denatured buffer solution (β-mercaptoethanol (BME), 0.4% Bromphenol Blue), and boiled for 30 min at 100° C. for further use.
(§7) 6) A prepared SDS-PAGE gel (10% separation gel and 5% stacking gel) was taken; samples were added with 40 ug/well, and subjected gel electrophoresis for 30 min at 80V, and gel electrophoresis for 90 min at 120V. […]

Assay [2] deals with ERK, RB, MPK, AKT, mTOR and 4E-BP1 phosphorylation in LoVo. The description is as above. The assay is classed as cell-based, human. As to conditions: 24 h, FIGS. 9A-C. The protocol: as §1, §2, §3, §4, §5, §6, §7
Assay [3] has as its system KRAS wildtype CRC cells SW48. In words: Cell viability (CCK-8 method). To be noted: Homo sapiens, CCK8, FIG. 10. It counts as cell-based. The protocol: (§8) The cells were inoculated on a plate according to the concentration of 5000 cells/well (48-well plate, 200 μl per well). The cells were treated with different ways according to the experimental requirements, and 10 μl CCK8 solution was added after a period of time. The cells were incubated for 1 h in an incubator; 200 μl supernatant were absorbed into a 96-well ELISA plate to determine OD450 with a microplate reader.
(§9) (2) Metformin with a gradient concentration was used in vitro to treat KRAS wildtype colorectal cancer cell lines SW48 and CaCO2, KRAS G13D-mutation colorectal cancer cell lines HCT-116 and LoVo, as well as KRAS G12V-mutation colorectal cancer cell lines SW480 and SW620. In addition, the metformin with a gradient concentration was used to treat the KRAS wildtype colorectal cancer cell line SW48 transfected with KRAS G12V, KRAS G13D and KRAS G12D plasmids.
(§10) 5 μM and 10 μM lansoprazole were used to treat HCT-116 and LoVo simultaneously; metformin was used to treat the cells at the same time for 48 h; the cell viability was detected by CCK8.

Assay [4] concerns KRAS wildtype CRC cells CaCO2. As to the kind of experiment: Cell viability (CCK-8 method). The assay is classed as cell-based. To be noted: Homo sapiens, Caco-2; CCK8, FIG. 10. The method, then: as §8, §9, §10
The subject of assay [5] is SW48 CDX. In words: Cell-derived xenograft (CDX), tumor growth. The assay is classed as in vivo, BALB/c nude mice. As to conditions: 200 mg/kg in water, 30 d, vs control group, FIGS. 12G-L. The protocol:
The tumor inhibition effect of MATE1 with metformin was verified by a cell-derived xenograft transplantation model (CDX) experiment.
(§11) In the CDX, CRISPR/Cas9 was first utilized to build a KRAS^G13DSW48 cell line; MATE1 was knocked down by shRNA lentivirus transduction in SW48 to build a sh-MATE1-SW48 cell line; lentivirus was infected in KRAS^G13DSW48 cells to over-express MATE1. 1×10^6 cells were suspended in a basement membrane matrix (100 μl basement membrane matrix and 100 μl PBS) and subcutaneously injected into BALB/c nude mice. CDX mice were randomly distributed into a metformin treatment group and a control group. 200 mg/kg (equivalent to human 1000 mg) metformin was dissolved into water, and respectively taken by the 4 groups of animals; then the tumor size was measured; 30 d later, the tumor tissues were killed and weighed.

For assay [6], the system named is KRAS^G13DSW48 graft with MATE1 over-expressed. As to the kind of experiment: Cell-derived xenograft (CDX), tumor growth. It counts as in vivo, BALB/c nude mice. As to conditions: 200 mg/kg in water, 30 d, compared with the KRAS^G13DSW48 tumor, FIGS. 12G-L. The protocol:
as §11

In assay [7] the test system is SW48+sh-MATE1 CDX. As to the kind of experiment: Cell-derived xenograft (CDX), tumor growth. To be noted: 200 mg/kg in water, 30 d, MATE1 knocked down, FIGS. 12G-L. It counts as in vivo, BALB/c nude mice. The protocol: as §11

Turning to `CN(C)C(=N)N=C(N)N` [metformin], the “phosphorylation levels in ERK, RB, MPK, AKT, mTOR and 4E-BP1” value in assay [1] is reported as “no obvious change”; in assay [2] it was “inhibited phosphorylation levels”. Besides, the IC50 was found to be 90.8 mM in assay [3] and 88.1 mM in assay [4]. Further, the “anti-tumor effect (tumor growth)” value in assay [5] was “no obvious anti-tumor effect”; in assay [6], “has no effect”. Also, the tumor growth result in assay [7] is on record as “significantly inhibits the tumor growth”.
